Laboratory results: patent publication US8664257B2, “Oxygen-substituted 3-heteroaroylamino-propionic acid derivatives and their use as pharmaceuticals” (Sanofi, priority 2010, dated 2014)

target: T1, Recombinant human cathepsin A (Homo sapiens, UniProt P10619); assay: Cathepsin A inhibitory activity; assay type: biochemical; conditions: recombinant human cathepsin A; read-out: Activity (2): Cathepsin A inhibitory activity, IC50 class
T1 construct: Recombinant human cathepsin A (residues 29-480, with a C-terminal 10-His tag); 10-His (C); purchased R&D Systems 1049-SE
T1 sequence (P10619 29-312 limits assumed): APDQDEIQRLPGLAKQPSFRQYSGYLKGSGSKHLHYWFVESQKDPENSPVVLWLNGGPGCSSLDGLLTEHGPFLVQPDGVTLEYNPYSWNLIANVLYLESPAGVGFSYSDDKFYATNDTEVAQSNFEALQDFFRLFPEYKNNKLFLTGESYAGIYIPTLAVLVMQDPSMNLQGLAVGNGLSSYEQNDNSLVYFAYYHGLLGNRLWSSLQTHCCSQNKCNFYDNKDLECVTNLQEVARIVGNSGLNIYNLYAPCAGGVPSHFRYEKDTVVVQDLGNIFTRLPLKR
T1 sequence (P10619 327-480 limits assumed): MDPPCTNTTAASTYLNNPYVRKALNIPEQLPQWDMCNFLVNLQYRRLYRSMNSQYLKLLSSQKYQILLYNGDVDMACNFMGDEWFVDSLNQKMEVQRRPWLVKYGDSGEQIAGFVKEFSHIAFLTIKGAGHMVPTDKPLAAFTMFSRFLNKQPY
Method in brief: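 Human cathepsin A (res. 29-480, C-His10) pre-activated with cathepsin L (MES pH 6.0, DTT, 15 min, 37 °C; quenched with 10 μM E-64). Enzyme (833 ng/ml) preincubated 15 min RT with compound in MES pH 5.5/DTT, then 2 μM Bodipy FL-bradykinin for 15 min RT. Capillary electrophoresis product/substrate peak areas; IC50 from % inhibition.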

SMILES | IC50 [nM]
COc1cc(C(=O)N[C@@H](CC(=O)N[C@H](CO)C(C)C)c2ccccc2C)nn1-c1ccccc1F [Example 936, 1-(2-Fluoro-phenyl)-5-methoxy-1H-pyrazole-3-carboxylic acid [(S)-2-((S)-1-hydroxymethyl-2-methyl-propylcarbamoyl)-1-o-tolyl-ethyl]-amide] | < 100
COC[C@H](C)NC(=O)C[C@H](NC(=O)c1cc(OC)n(-c2ccccc2F)n1)c1ccccc1C [Example 937, 1-(2-Fluoro-phenyl)-5-methoxy-1H-pyrazole-3-carboxylic acid [(S)-2-((S)-2-methoxy-1-methyl-ethylcarbamoyl)-1-o-tolyl-ethyl]-amide] | < 100
COc1cc(C(=O)N[C@@H](CC(=O)NC[C@@H]2CCCO2)c2ccccc2C)nn1-c1ccccc1F [Example 938, 1-(2-Fluoro-phenyl)-5-methoxy-1H-pyrazole-3-carboxylic acid ((S)-2-{[(S)-1-(tetrahydro-furan-2-yl)methyl]-carbamoyl}-1-o-tolyl-ethyl)-amide] | < 100
COc1cc(C(=O)N[C@@H](CC(=O)N[C@H](C)C(C)C)c2ccccc2C)nn1-c1ccccc1F [Example 939, 1-(2-Fluoro-phenyl)-5-methoxy-1H-pyrazole-3-carboxylic acid [(S)-2-((R)-1,2-dimethyl-propylcarbamoyl)-1-o-tolyl-ethyl]-amide] | < 100
